Measured values: patent US20220002399A1, “METHODS FOR DECREASING INFLUENZA-INDUCED LETHALITY USING GASTRIN-RELEASING PEPTIDE (GRP) INHIBITORS OR GASTRIN-RELEASING PEPTIDE RECEPTOR (GRPR) ANTAGONISTS” (University of Maryland, Baltimore, priority 2018, published 2022)
Ends that are not written are not given here.

Tests used:
[1] = test system: LPS signaling (TLR4) in WT C57BL/6J peritoneal macrophages; experiment: LPS signaling in peritoneal macrophages pre-treated with GRP inhibitor or GRPR antagonist; format: cell-based, mouse; conditions: 0.5 μM pre-treatment 1 h, then LPS (10 ng/ml) 2 h
[2] = test system: pulmonary neuroendocrine cells (PNECs); experiment: IHC staining for pulmonary neuroendocrine cells (PGP 9.5, GRP) in influenza-infected mice; format: in vivo, WT C57BL/6J mice
Description: FIG. 4. IHC staining for pulmonary neuroendocrine cells (PNECs), PGP 9.5, and GRP in influenza-infected mice. Lung sections from FIG. 3 were stained in a mock-infected, c PR8+vehicle, and e PR8+NSC77427 for neural/neuroendocrine-specific PGP 9.5, or in b mock-infected, d PR8+vehicle, and f PR8+NSC77427 for GRP, a neuroendocrine granule marker. Scale bars shown are 50 μm for a-d, and 10 μm for e and f. Arrows are positioned in each panel within a treatment group to indicate groups of positive cells, except in b, where the arrow indicates GRP− cells adjacent to the PGP 9.5+ cells shown in a. g Graphic image analysis of PGP 9.5+ and GRP+ cells after IHC staining. Slides were blinded by an observer with no knowledge of experimental groups. PCP9.5+ and GRP+ cells were counted throughout each complete lung lobe crosssection for each animal, with validation by x40 micrographs of each slide. Total tissue area was determined by using ImageI thresholding analysis (methyl green counterstain) because PNECs are mainly observed in alveolar ducts and small bronchioles. *p=0.009; **p=0.001
Immunohistochemical (IHC) staining for the mature GRP peptide (a PNEC granule marker) and PGP 9.5 (the neural/NE cytoplasmic isoform of ubiquitin-C-terminal hydrolase-1) was carried out as described previously. In brief, formalin-fixed, paraffin-embedded lung sections were treated for 10 min with Triton X-100 (0.3% in phosphate-buffered saline (PBS)), then normal serum blocking. Diluted primary antibodies were added to sections overnight at 4° C., followed by washing in PBS and incubation for 2 h at 4° C. with 1:200 dilution of biotinylated secondary antibodies (Vector, Burlingame, Calif., USA). After blocking in 3% H2O2 in methanol, Vector ABC Elite was applied to slides for 30 min. Slides were developed by using diaminobenzidine and H2O2, and then counterstained in 2% aqueous methyl green. All slides were blinded for semi-quantitative analysis. Results are expressed as mean numbers of cells positive for PGP 9.5 or GRP per mm^2 lung tissue section. […]

[3] = test system: radiation-induced pneumonitis/fibrosis; conditions: therapeutic administration; cited from earlier work
GRP-induced angiogenesis = conditions: 0.5 μM; in vitro and in vivo; cited from earlier work
[4] = test system: influenza-induced cytokine induction; experiment: Lung cytokine gene expression by qRT-PCR in PR8-infected mice; format: in vivo, WT C57BL/6J mice; parameters: lung mRNA expression of IFN-β: dose or concentration left out as unconfirmed
[5] = test system: LPS signaling (TLR4) in WT C57BL/6J peritoneal macrophages; format: cell-based, mouse; conditions: 2 h
[6] = 20 μM/mouse i.v. daily day 2 to 6

Row | Compound | LPS-induced MyD88-dependent (TNF-α) or TRIF-dependent (IFN-β, RANTES) gene expression [1] | fewer PGP+ PNECs vs. PR8-infected untreated ([2]; NSC77427 days 2 to 6, IHC image analysis, p=0.009) | GRP immunostaining in the extracellular matrix ([2]; PR8-infected, NSC77427 days 2 to 6) | decrease in GRP+ PNECs ([2]; PR8-infected, NSC77427 days 2 to 6, IHC image analysis, p=0.001) | lung injury [3] | GRP-induced angiogenesis (GRP-induced angiogenesis) | lung mRNA expression of IL-1β [4, 6] | lung mRNA expression of RANTES [4, 6] | lung mRNA expression of TNF-α [4, 6] | lung mRNA expression of IFN-β ([4]; i.v. daily day 2 to 6) | MyD88-dependent and TRIF-dependent cytokine gene expression with suboptimal LPS ([5]; GRP 1-100 nM plus LPS 0.1 and 1 ng/ml) | synergistic effect with LPS at higher doses of LPS ([5]; GRP 1-100 nM plus LPS up to 10 ng/ml) | cytokine gene expression, GRP alone ([5]; GRP 1-100 nM, no LPS)
1 | Nc1nc(Cl)cc(NCCO)n1 [NSC77427, 2-[(2-amino-6-chloropyrimidin-4-yl)amino]ethanol] | did not block | ~50% | visibly less | ~70% | mitigated | blocked GRP-induced angiogenesis | blunted | blunted | blunted | blunted |  |  | 
2 | GRP: exogenous gastrin-releasing peptide added to macrophages with LPS (VPLPAGGGTVLTKMYPRGNHWAVGHLM; ends and bridges not checked; UniProt P07492 24-50, looked up) |  |  |  |  |  |  |  |  |  |  | synergistic induction | largely lost | did not induce cytokine gene expression
